In the supplement of paper PMC9938120:

Legend:
Assay in all cases: drug sensitivity score (DSS3, normalised partial AUC of % inhibition dose-response) (DSS (score)); higher = more sensitive (stronger inhibition of viability); extreme values may be limits of the assay
Conditions in all cases: 72 h; library: FO5A; assay format: 2D, 384-well, CellTiter-Glo
[1] = test system: FMOC02_1 (patient-derived low-grade serous ovarian cancer cells)
Summary of the method: (§1)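 On 384-well flat clear-bottom plates carrying compounds at five concentrations across a 10,000-fold range, patient-derived ovarian cancer cells below passage 10 were incubated for 72 h at 37 °C with 5% CO2. CellTiter-Glo readout of viability was processed in Breeze. A higher drug sensitivity score, defined as the partial area under the percent-inhibition dose-response curve divided by the log of the upper asymptote, means greater sensitivity.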

[2] = test system: FMOC02_2 (patient-derived low-grade serous ovarian cancer cells)
Summary of the method: as §1

[3] = test system: FMOC02_3 (patient-derived low-grade serous ovarian cancer cells)
Summary of the method: as §1

[4] = test system: FMOC03 (patient-derived mucinous ovarian cancer cells)
Summary of the method: as §1

[5] = test system: FMOC04 (patient-derived high-grade serous ovarian cancer cells)
Summary of the method: as §1

[6] = test system: FMOC06 (patient-derived mucinous ovarian cancer cells)
Summary of the method: as §1

[7] = test system: FMOC09 (patient-derived high-grade serous ovarian cancer cells)
Summary of the method: as §1

[8] = test system: FMOC11 (patient-derived high-grade serous ovarian cancer cells)
Summary of the method: as §1

[9] = test system: FMOC14 (patient-derived high-grade serous ovarian cancer cells)
Summary of the method: as §1

[10] = test system: FMOC17 (patient-derived low-grade serous ovarian cancer cells)
Summary of the method: as §1

[11] = test system: FMOC22 (patient-derived mucinous ovarian cancer cells)
Summary of the method: as §1

[12] = test system: FMOC24 (patient-derived high-grade serous ovarian cancer cells)
Summary of the method: as §1

[13] = test system: FMOC25_2 (patient-derived low-grade serous ovarian cancer cells)
Summary of the method: as §1

[14] = test system: FMOC27 (patient-derived low-grade serous ovarian cancer cells)
Summary of the method: as §1

[15] = test system: FMOC28 (patient-derived low-grade serous ovarian cancer cells)
Summary of the method: as §1

Row | Structure (SMILES) | drug sensitivity score [1] | drug sensitivity score [2] | drug sensitivity score [3] | drug sensitivity score [4] | drug sensitivity score [5] | drug sensitivity score [6] | drug sensitivity score [7] | drug sensitivity score [8] | drug sensitivity score [9] | drug sensitivity score [10] | drug sensitivity score [11] | drug sensitivity score [12] | drug sensitivity score [13] | drug sensitivity score [14] | drug sensitivity score [15]
1 | COCCNCc1ccc(-c2cc3nccc(Oc4ccc(NC(=O)C5(C(=O)Nc6ccc(F)cc6)CC5)cc4F)c3s2)nc1 [Sitravatinib] | 2.1 | 1.1 | 2.5 | 0.3 | 0.45 | 1.6 | 1.4 | 1.1 | 1.2 | 2.1 | 0.4 | 5.8 | 2.2 | 2.5 | 1.5
2 | C=CC(=O)Nc1cccc(Oc2nc(Nc3ccc(N4CCN(C)CC4)cc3)nc3ccsc23)c1 [Olmutinib] | 2.3 | 2.1 | 2.3 | 0.8 | 0.05 | 0.2 | 3.5 | 0.4 | 0 | 2.6 | 0 | 0 | 1.5 | 2.4 | 1.7
3 | CCCCOc1nc(N)c2c(n1)N(Cc1cccc(CN3CCCC3)c1)CC(=O)N2 [Vesatolimod] | 0 | 0 | 0 | 0 | 0 | 0 | 0.2 | 0 | 0 | 0 | 0 | 0 | 0.1 | 0 | 0
4 | CC[C@]12C=CCN3CC[C@@]4(c5cc([C@@]6(C(=O)OC)C[C@@H]7C[C@@H](C(C)(F)F)CN(Cc8c6[nH]c6ccccc86)C7)c(OC)cc5N(C)[C@H]4[C@@](O)(C(=O)OC)[C@@H]1OC(C)=O)[C@@H]32 [Vinflunine] | 3.6 | 3.2 | 5.8 | 1.7 | 4.1 | 0.8 | 3.6 | 3.4 | 0 | 5.1 | 0.9 | 0 | 3.6 | 0.6 | 1.3
5 | C[C@@H]1CN(C(=O)c2ccc(NC(=O)c3cc(O[C@H](C)c4c(Cl)ccc(F)c4Cl)c(N)nn3)cc2)C[C@H](C)N1 [Ensartinib] | 4.3 | 0.4 | 1.6 | 0 | 0.05 | 3 | 1.1 | 0.2 | 0 | 1.5 | 0.1 | 0.7 | 0.8 | 0 | 2.2
6 | CCOC(=O)C1=CCCC[C@H]1S(=O)(=O)Nc1ccc(F)cc1Cl [Resatorvid] | 0 | 0 | 0 | 0 | 0 | 0.1 | 0 | 0 | 0 | 0 | 0 | 0 | 0 | 0 | 0
7 | CN1CCN(c2ccc(C(=O)Nc3n[nH]c4ccc(Cc5cc(F)cc(F)c5)cc34)c(NC3CCOCC3)c2)CC1 [Entrectinib] | 0.3 | 1.5 | 2.7 | 0 | 0.1 | 1.4 | 0.3 | 1.1 | 0 | 1.9 | 0 | 0 | 2.7 | 0 | 2.2
8 | Cc1cc(Nc2ncnc3ccc(NC4=NC(C)(C)CO4)cc23)ccc1Oc1ccn2ncnc2c1 [Tucatinib] | 0 | 0.1 | 0 | 0 | 0 | 0 | 0 | 0 | 0 | 0 | 0 | 0 | 0.5 | 0 | 1
9 | COc1cc2c(cc1OCCCN1CCCC1)N=C(N)C21CCC1 [A-366] | 3.9 | 0.2 | 0 | 0.7 | 3.9 | 0 | 2.3 | 1.1 | 0.5 | 2.3 | 0 | 7.2 | 4.9 | 0 | 0.1
10 | CC[C@@H]1[C@H](F)C(=O)N[C@@H]1COc1nccc2cc(C(N)=O)c(OC)cc12 | 2.6 | 0.6 | 5.2 | 0 | 0 | 0 | 0 | 0 | 0 | 0 | 0 | 0 | 4 | 0.5 | 0
11 | CC(C)NC(=O)COc1cccc(-c2nc(Nc3ccc4[nH]ncc4c3)c3ccccc3n2)c1 [KD025] | 5.4 | 1.6 | 6.2 | 0 | 3.55 | 1.1 | 0.2 | 1.6 | 2.7 | 4.5 | 0 | 10.4 | 4.4 | 0 | 2.4
12 | Nc1cc(COc2c(Cl)cc(C[C@H](N)C(=O)O)cc2Cl)c2oc(-c3ccccc3)nc2c1 [JPH203] | 0 | 0 | 0 | 0 | 0 | 0.4 | 0 | 0 | 0 | 0 | 0 | 0 | 0 | 0 | 0
13 | Cc1ccc(C(=O)Nc2cccc(C(F)(F)F)c2)cc1Nc1nc(-c2cccnc2)nc2c1cnn2C [NVP-BHG712] | 6.2 | 3 | 3.3 | 5.2 | 0 | 7.3 | 3 | 4.7 | 3.3 | 4.6 | 3.4 | 7.9 | 0 | 1.6 | 4.8
14 | C[C@H]1C[C@@H](n2c(Nc3ccc(OC(F)(F)F)cc3)nc3cc(CCC(=O)O)ccc32)CC(C)(C)C1 | 0 | 0 | 0.3 | 0 | 0 | 0 | 0 | 0.6 | 0 | 0 | 1.1 | 4.1 | 0 | 0 | 0
15 | COc1cc(C)c(/C=C/C(C)=C/C=C/C(C)=C/C(=O)O)c(C)c1C [Acitretin] | 0.2 | 0.7 | 3.4 | 0 | 0 | 0.1 | 0 | 2.8 | 0 | 0 | 0 | 0 | 0 | 0 | 0.3
16 | COc1cc(N2CCC(N3CCN(C)CC3)CC2)ccc1Nc1ncc(Cl)c(Nc2ccccc2P(C)(C)=O)n1 [Brigatinib] | 4.4 | 4.3 | 3.7 | 0.9 | 1.75 | 4.7 | 3.8 | 1 | 1.7 | 2.9 | 0.5 | 2.8 | 6.4 | 1.7 | 4.8
17 | CC1(C)C(C(=O)Nc2ccc(S(=O)(=O)c3ccc(NC(=O)C4C(C)(C)C4(C)C)cc3)cc2)C1(C)C [BRD7116] | 0 | 0.1 | 3.7 | 0.5 | 0 | 0.8 | 0 | 2.2 | 0 | 1.4 | 0 | 1.5 | 0 | 0 | 1
18 | CC1=C2C[C@H]3[C@@H](CC[C@@H]4C[C@H](NS(C)(=O)=O)CC[C@@]43C)[C@@H]2CC[C@@]2(C1)O[C@@H]1C[C@H](C)CN[C@H]1[C@H]2C [Saridegib] | 0 | 2.2 | 0 | 0 | 0 | 0 | 0 | 0 | 0 | 4.1 | 0 | 0.3 | 0 | 0 | 2.2
19 | CCN1CCN(c2ccc(Nc3cc(N(C)C(=O)Nc4c(Cl)c(OC)cc(OC)c4Cl)ncn3)cc2)CC1 [Infigratinib] | 0 | 0 | 0 | 0 | 0 | 0 | 0 | 0 | 0 | 0 | 0 | 0.05 | 0 | 0 | 0.5
20 | O=C(Nc1cc(Oc2cc(F)c(NC(=O)C3(C(=O)Nc4ccc(F)cc4)CC3)cc2F)ccn1)C1CC1 [Altiratinib] | 4.9 | 5.2 | 5.1 | 5 | 1.05 | 6.9 | 1.7 | 2.4 | 5.1 | 3 | 4.3 | 8.2 | 9.1 | 5.1 | 3.3
21 | CN1C(=O)N[C@H](Cc2c[nH]c3c(Cl)cccc23)C1=O [Necrostatin 2] | 0 | 0 | 0 | 0 | 0 | 0 | 0 | 0 | 0 | 0.7 | 0 | 0 | 0.3 | 0 | 2.5
22 | CNC(=O)c1ccc(N2C(=S)N(c3cnc(C#N)c(C(F)(F)F)c3)C(=O)C23CCC3)cc1F [Apalutamide] | 0 | 0 | 0 | 0 | 0 | 0 | 0 | 0 | 0 | 0 | 0 | 0.45 | 0 | 0 | 3.4
23 | COC(=O)c1ccc([C@H]2c3[nH]c4ccccc4c3C[C@H](C(=O)OC)N2C(=O)CCl)cc1 [RSL3] | 0 | 0 | 0 | 0 | 0 | 0 | 0 | 0 | 0 | 0 | 0 | 0 | 0 | 0 | 0
24 | CN(C)CCCOc1ccc(-c2ccc3ncc4c(c3c2)n(C2CCOCC2)c(=O)n4C)cn1 [AZD0156] | 5.3 | 3.4 | 3.1 | 0.5 | 0.8 | 0.1 | 0.1 | 0 | 0 | 2.2 | 0.9 | 0 | 2.5 | 0 | 4.6
